Experiments:
[1] = system: mouse EC cell line, HM-1; details: retinoic acid induction; cited from earlier work
[2] = system: human embryonal carcinoma (EC) cell line NT2/D1; assay: Retinoic acid induction of NT2/D1 cells (differentiation, northern analysis); type: cell-based; details: nine days of RA, 0.01 to 10 µM, normalized to β-actin probe
Procedure: The human embryonal carcinoma (EC) cell line NT2/D1 can be induced to differentiate at concentrations of retinoic acid (RA) varying from 0.01 to 10 µM, with the proportion of differentiating EC cells ranging from 50% at […] RA to greater than 99% at […] RA. The expression of MK and HBNF during differentiation of NT2/D1 is studied, at concentrations ranging from 0.01 to 10 µM. After nine days of exposure to RA, total RNA was extracted from cells and probed for gene expression by northern analysis. Expression of both gene follows a similar pattern. Levels of mRNA expression remain at a steady background level. When RNA hybridization signals are normalized to a control β-actin probe, the maximum increases are calculated to be 6-fold for HBNF and 11-fold for MK. […] In this cell line, MK gene expression is induced 8-10 fold above background.
The human embryonal carcinoma cell line Nt2/D1 is grown. For retinoic acid induction, cells are grown and resuspended in DMEM medium containing 10% bovine calf serum and resuspended in DMEM medium containing 10% bovine calf serum (Hyclone Laboratories, Inc.) at a density of 5 x 10⁵ cells per 100 mm dish. Varying concentrations of all-trans retinoic acid in dimethyl sulfoxide (10 µl) is added and cells are incubated for 9 days. Fresh medium and RA are added at days 4 and 8. […]

**Q.** For `CC1=C(/C=C/C(C)=C/C=C/C(C)=C/C(=O)O)C(C)(C)CCC1` [RA, all-trans retinoic acid], which “MK gene expression induced above background” value [1] is on record?
**A.** 8-10 fold

**Q.** What about the “maximum increase of HBNF mRNA expression” value [2] of the same molecule?
**A.** 6 fold

**Q.** What about the “maximum increase of MK mRNA expression” value [2] of the same molecule?
**A.** 11 fold
